In article PMC5983823, “Screening of Natural Product Derivatives Identifies Two Structurally Related Flavonoids as Potent Quorum Sensing Inhibitors against Gram-Negative Bacteria” (International Journal of Molecular Sciences, 2018):

Key:
C. violaceum ATCC 31532 = assay: Violacein extraction assay (QS-mediated violacein production); type: cell-based, Chromobacterium violaceum; conditions: Chromobacterium violaceum; for inhibition at 400 µM: ATCC31532, 24 h, primary screening, 24 h, C. violaceum ATCC 31532, read-out: Inhibition-% of violacein production; for IC50: ATCC31532, C. violaceum ATCC 31532, 15 concentration points, read-out: IC50 of violacein production
Protocol: (§1) The initial screening of compound library was conducted using two strains of C. violaceum as model bacterium, and two assays (violacein extraction and resazurin staining) in parallel as recently optimized in [26]. For the screening assays, overnight cultures of C. violaceum were diluted in LB broth supplemented with yeast extract (LBY) (0.1% w/v, Sigma Aldrich, St. Louis, MO, USA). Culture of C. violaceum CV026 was further supplemented with 0.5 µM N-(β-ketocaproyl)-L-Homoserine lactone (3-O-C6-(L)-HSL, Cayman chemicals, Ann Arbor, MI, USA) to induce the violacein production. Bacteria (10^6 CFU/mL) was exposed to compounds (400 µM) in a total volume of 200 µL in 96-microtiter well plates (Nunc, Roskilde, Denmark), and incubated at 27 °C, with shaking at 200 rpm for 24 h. DMSO was added in untreated control wells and bacteria-free wells with only LBY were included controls. Additionally, autoinducer-free wells containing only bacteria were included in C. violaceum CV026 plates. Plates were prepared in duplicates. Quercetin dihydrate (Carl Roth GmbH, Karlsruhe, Germany) at 400 µM was used as positive control in violacein extraction assay, and azithromycin (Cayman chemicals, Ann Arbor, MI, USA) at 10 µM in viability assay. Both control compounds were prepared in DMSO. DMSO concentration was 2.5% throughout the experiments.
(§2) After incubation period of 24 h, plates were centrifuged (Allegra™ X-12R Benchtop centrifuge, Beckman Coulter Inc., Fullerton, CA, USA) at 3000 rpm for 10 min to precipitate the violacein. Supernatants were discarded from the wells by pipetting, and pellets were re-suspended in 200 μL of 96% ethanol by scraping and mixing followed by centrifugation (3000 rpm, 10 min). Thereafter, 100 μL of supernatants were transferred to sterile 96-microtiter well plates, and violacein was quantified by reading the optical density at 595 nm using Varioskan Flash. Inhibition of violacein production was expressed as inhibition percentages of the untreated biofilms (Equation (1)):Inhibition-% = [(untreated control OD595 − sample OD595)/(untreated control OD595 − media control OD595)] × 100%(1) in which untreated control = C. violaceum + DMSO, media control = LBY, and sample = C. violaceum treated with a compound. Later on, violacein extraction assay was also utilized for the determination of half inhibitory concentrations of the compounds.

C. violaceum CV026 = assay: Violacein extraction assay (QS-mediated violacein production), mutant strain with exogenous autoinducer; type: cell-based, Chromobacterium violaceum; conditions: Chromobacterium violaceum, CV026, 24 h, read-out: Inhibition-% of violacein production
Protocol: as §1, §2

[1] = system: P. aeruginosa and E. coli biofilms; assay: Transmitted light microscopy of biofilms; type: cell-based, Pseudomonas aeruginosa, Escherichia coli; conditions: 100 µM, all the tested strains, crystal violet, 40×
Protocol: For imaging, bacteria were allowed to adhere and form microcolonies on coverslips. Briefly, 5 mL of diluted cultures (10^6 CFU/mL) of P. aeruginosa and E. coli was added to 6-well plates containing glass coverslips (22 mm × 22 mm). The plates were incubated at 37 °C without shaking for 2 h. Thereafter, bacterial suspensions were removed, and the wells were washed once with PBS. Fresh LB with and without the lead compounds at a final concentration of 100 µM was added to the wells, and the plates were incubated at 37 °C for 22 h. At the end of 24 h, coverslips were rinsed three times with MQ-water and air dried followed by staining with 0.23% (v/v) crystal violet solution. Coverslips were allowed to dry and visualized under a Transmitted Light Microscope (EVOS® XL Imaging System, InvitrogenTM, Thermo Fisher Scientific, San Jose, CA, USA) at a magnification of 40×.

E. coli K-12 = assay: Viable plate counts (bacterial growth); type: cell-based, Escherichia coli; conditions: 100 and 400 µM, 24 h
Protocol: Effects of the leads on bacterial growth were assessed by performing viable plate counts. Compounds at final concentrations of 100 and 400 µM and cultures of P. aeruginosa (ATCC 9027, ATCC 15422 and PA01) and E. coli K-12 (10^6 CFU/mL) were simultaneously added to the 96-microtiter well plates (200 µL per well). Untreated bacteria were included in control wells. The plates were incubated at 37 °C, without shaking for 24 h. At the end of this period, bacterial suspensions were transferred from the wells to Eppendorf tubes, and the tubes were sonicated for 10 min (25 °C, 35 kHz, Sonorex Digitec water bath (Bandelin, Zurich, Switzerland)). Each suspension was serially diluted in LB and plated on LB agar. The number of viable bacteria in each test concentration was counted after overnight incubation at 37 °C. Results were expressed as CFU/mL.

[2] = system: RhlI/RhlR controlled rhamnolipid biosynthesis in P. aeruginosa; design: method as in ref 73 = [73]; 73. Manner S. Fallarero A. Abo Akademi University and University of Helsinki, Finland Evaluation of the Effects of the Leads in Rhamnolipid Biosynthesis Personal communication 2017; conditions: personal communication ref 73; cited from earlier work
C. violaceum = system: C. violaceum; design: method as in PMID 27626397; conditions: cited from earlier work
[3] = system: Staphylococcus aureus biofilms; design: method as in PMID 24071942; conditions: cited from earlier work

| Structure (SMILES) | inhibition at 400 µM (C. violaceum ATCC 31532) [%] | IC50 (C. violaceum ATCC 31532) [µM] | inhibition at 400 µM (C. violaceum CV026) [%] | Effect on biofilm structure and formation [1] | Bactericidal activity by viable plate counts (E. coli K-12) | Effect on rhamnolipid biosynthesis [2] | Anti-QS activity class in earlier screening (C. violaceum) | Anti-biofilm activity against S. aureus [3] |
| --- | --- | --- | --- | --- | --- | --- | --- | --- |
| CCC(=O)Oc1c(-c2ccccc2Cl)oc2ccccc2c1=O [Compound 2117, 2-(2-chlorophenyl)-4-oxochromen-3-yl propanoate] | 102 | 9.6 | 102 | alteration of biofilm structure and reduced biofilm formation | Neither of the leads displayed any bactericidal activity | did not affect | among the most active compounds | inactives |
| CCCCCCCCCC(=O)Oc1c(-c2ccc(OC)cc2)oc2ccccc2c1=O [Compound 2896, 2-(4-methoxyphenyl)-4-oxochromen-3-yl decanoate] | 94.5 | 13.9 | 91.2 | alteration of biofilm structure and reduced biofilm formation | Neither of the leads displayed any bactericidal activity | did not affect |  | inactives |
